In PubChem BioAssay AID1963865 (Molecular Pharmacology Branch, DTP, NCI, 2024):

Test system: KRAS PDC multicell spheroid viability
Experiment: Anticancer human tumor 825966-067-R-J1-PDC patient-derived colon carcinoma cell line growth inhibition [KRAS2]
Conditions: for IC50: curve of first compound; for viability, T/C: stronger effect = lower value
Method in brief: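 Combination screen of spheroid viability in tumor-cell co-cultures with endothelial (HUVEC) and mesenchymal stem cell stroma. Each agent was tested in half-log dilutions, topping at clinical Cmax or at 10 microM without a known Cmax.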

[1] = second compound 0.1 µM, first compound 0.0316 µM
[2] = second compound 0.1 µM, first compound 0.1 µM
[3] = second compound 0.1 µM, first compound 0.316 µM
[4] = second compound 0.1 µM, first compound 1 µM
[5] = second compound 0.1 µM, first compound 3.16 µM
[6] = second compound 0.1 µM, first compound 10 µM
[7] = second compound 0.316 µM, first compound 0.0316 µM
[8] = second compound 0.316 µM, first compound 0.1 µM
[9] = second compound 0.316 µM, first compound 0.316 µM
[10] = second compound 0.316 µM, first compound 1 µM
[11] = second compound 0.316 µM, first compound 3.16 µM
[12] = second compound 0.316 µM, first compound 10 µM
[13] = second compound 1 µM, first compound 0.0316 µM
[14] = second compound 1 µM, first compound 0.1 µM
[15] = second compound 1 µM, first compound 0.316 µM
[16] = second compound 1 µM, first compound 1 µM
[17] = second compound 1 µM, first compound 3.16 µM
[18] = second compound 1 µM, first compound 10 µM
[19] = second compound 3.16 µM, first compound 0.0316 µM
[20] = second compound 3.16 µM, first compound 0.1 µM
[21] = second compound 3.16 µM, first compound 0.316 µM
[22] = second compound 3.16 µM, first compound 1 µM
[23] = second compound 3.16 µM, first compound 3.16 µM
[24] = second compound 3.16 µM, first compound 10 µM
[25] = second compound 10 µM, first compound 0.0316 µM
[26] = second compound 10 µM, first compound 0.1 µM
[27] = second compound 10 µM, first compound 0.316 µM
[28] = second compound 10 µM, first compound 1 µM
[29] = second compound 10 µM, first compound 3.16 µM
[30] = second compound 10 µM, first compound 10 µM
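Note: spheroids exposed to compounds for 7 days.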
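Throughout, for viability, T/C: 100% = DMSO vehicle control viability.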

Compound | IC50 (second compound 0.1 µM) | IC50 (second compound 0.316 µM) | IC50 (second compound 1 µM) | IC50 (second compound 3.16 µM) | viability, T/C [1] | viability, T/C [2] | viability, T/C [3] | viability, T/C [4] | viability, T/C [5] | viability, T/C [7] | viability, T/C [8] | viability, T/C [9] | viability, T/C [10] | viability, T/C [11] | viability, T/C [13] | viability, T/C [14] | viability, T/C [15] | viability, T/C [16] | viability, T/C [17] | viability, T/C [19] | other results
CC(C)NCC(C(=O)N1CCN(c2ncnc3c2C(C)CC3O)CC1)c1ccc(Cl)cc1 (stereo not given) + C=CC(=O)N1CCN(c2nc(=O)n(-c3c(C)ccnc3C(C)C)c3nc(-c4c(O)cccc4F)c(F)cc23)C(C)C1 | 2270 nM | 1640 nM | 1470 nM | 1600 nM | 105% | 139% | 155% | 93.6% | 35.2% | 104% | 127% | 136% | 73.7% | 26.6% | 88.7% | 121% | 120% | 69% | 16.9% | 97.2% | IC50 (second compound 10 µM): 235 nM; viability, T/C [6]: 10.4%; viability, T/C [12]: 10.6%; viability, T/C [18]: 6.64%; viability, T/C [20]: 130%; viability, T/C [21]: 110%; viability, T/C [22]: 68.5%; viability, T/C [23]: 23.6%; viability, T/C [24]: 9.85%; viability, T/C [25]: 76.2%; viability, T/C [26]: 150%; viability, T/C [27]: 27.9%; viability, T/C [28]: 14.5%; viability, T/C [29]: 6.65%; viability, T/C [30]: 2.19%
CC(C)NCC(C(=O)N1CCN(c2ncnc3c2C(C)CC3O)CC1)c1ccc(Cl)cc1 (stereo not given) + CC1OCC2(CCN(c3cnc(Sc4ccnc(N)c4Cl)c(N)n3)CC2)C1N | 4490 nM | 4130 nM | 2550 nM | 1420 nM | 73.2% | 97.8% | 129% | 87.9% | 67.5% | 86.3% | 121% | 145% | 122% | 60.6% | 92.9% | 102% | 133% | 112% | 36.2% | 102% | IC50 (second compound 10 µM): 35.8 nM; viability, T/C [6]: 11.6%; viability, T/C [12]: 14.5%; viability, T/C [18]: 12.1%; viability, T/C [20]: 107%; viability, T/C [21]: 137%; viability, T/C [22]: 67.7%; viability, T/C [23]: 13.4%; viability, T/C [24]: 5.28%; viability, T/C [25]: 53.1%; viability, T/C [26]: 29.5%; viability, T/C [27]: 21.9%; viability, T/C [28]: 6.39%; viability, T/C [29]: 4.52%; viability, T/C [30]: 4.31%
CC1OCC2(CCN(c3cnc(Sc4ccnc(N)c4Cl)c(N)n3)CC2)C1N (stereo not given) + C=CC(=O)N1CCN(c2nc(OCC3CCCN3C)nc3c2CCN(c2cccc4cccc(C)c24)C3)CC1CC#N | 8780 nM | 6860 nM | 7180 nM | 5790 nM | 84.6% | 75% | 114% | 83.5% | 89.9% | 94.5% | 83.5% | 90.4% | 107% | 115% | 87.2% | 105% | 97.7% | 97.3% | 121% | 81.4% | IC50 (second compound 0.0316 µM): 8770 nM; viability, T/C (second compound 0.0316 µM, first compound 0.0316 µM): 105%; viability, T/C (second compound 0.0316 µM, first compound 0.1 µM): 97%; viability, T/C (second compound 0.0316 µM, first compound 0.316 µM): 92.5%; viability, T/C (second compound 0.0316 µM, first compound 1 µM): 82.3%; viability, T/C (second compound 0.0316 µM, first compound 3.16 µM): 106%; viability, T/C (second compound 0.0316 µM, first compound 10 µM): 44%; viability, T/C [6]: 44.9%; viability, T/C [12]: 26.4%; viability, T/C [18]: 29.1%; viability, T/C [20]: 116%; viability, T/C [21]: 102%; viability, T/C [22]: 110%; viability, T/C [23]: 99%; viability, T/C [24]: 5.73%
CC1COCCN1c1cc(-c2ccnn2C)c2ccnc(-c3ccn[nH]3)c2n1 (stereo not given) + C=CC(=O)N1CCN(c2nc(=O)n(-c3c(C)ccnc3C(C)C)c3nc(-c4c(O)cccc4F)c(F)cc23)C(C)C1 | 308 nM | > 3160 nM | 263 nM | 3160 nM | 135% | 123% | 41.5% | 56.2% | 47.4% | 142% | 72.9% | 60.3% | 44.9% | 60.4% | 125% | 71% | 41.5% | 51.1% | 41.4% | 146% | IC50 (second compound 10 µM): > 3160 nM; viability, T/C (second compound 0.1 µM, first compound 0.01 µM): 110%; viability, T/C (second compound 0.316 µM, first compound 0.01 µM): 137%; viability, T/C (second compound 1 µM, first compound 0.01 µM): 137%; viability, T/C (second compound 3.16 µM, first compound 0.01 µM): 106%; viability, T/C [20]: 70.4%; viability, T/C [21]: 70.8%; viability, T/C [22]: 51.2%; viability, T/C [23]: 43%; viability, T/C (second compound 10 µM, first compound 0.01 µM): 137%; viability, T/C [25]: 108%; viability, T/C [26]: 64.6%; viability, T/C [27]: 75.8%; viability, T/C [28]: 59.1%; viability, T/C [29]: 47.2%
